The experiment has as its system Bdnf, Arc, Egr-1, Egr-2, Egr-3 mRNA in mouse PFC, HIP, mPFC. Put plainly: In vivo gene expression. The note with it: PFC and HIP, 30 min after 10 mg/kg i.p.

The results in this text go back to PMC12916285 (Molecular Psychiatry, 2025).

As for `CN(C)CCc1c[nH]c2ccccc12` [DMT, dimethyltryptamine], the “Expression of Egr-2 mRNA” value is “significantly elevated expression”.
